Experimental findings from patent publication US20050267073A1, “Triheterocyclic compounds, compositions, and methods for treating cancer or viral diseases” (priority 2004, published 2005) are described below.

pIC50: −log10 of the molar value. In brackets after ≈: the same amount, converted by molar mass. Counter-ions that a name gives are not always drawn. Like-named read-outs stand apart in the source and are kept apart here.

For data set [1], the target named is T1, human placental alkaline phosphatase (Homo sapiens, UniProt P05187).
T1 construct: purchased Sigma-Aldrich Canada Ltd
As to the kind of experiment: Conversion of phosphate pro-drug by human placental alkaline phosphatase in vitro. The data set is classed as in vitro ADME. As to conditions: 15 μM, 0.02 U/100 μL enzyme, pH 7.4; 30, 60, 120 minutes; FIG. 4. The procedure: (§1) The conversion into biologically active drug of phosphate pro-drugs by calf intestinal alkaline phosphatase and human placental alkaline phosphatase was measured in vitro using purified enzymes. Purified calf intestinal alkaline phosphatase (Roche Diagnostic Inc. Laval, Quebec, Canada) or human placental alkaline phosphatase (Sigma-Aldrich Canada Ltd. Oakville, Ontario, Canada) was added at a concentration of 0.02 U/100 μL to a solution containing 15 μM of Compound 66, 20 mM Tris-HCl, pH 7.4 and 0.9% NaCl. The solutions were incubated for 30, 60 or 120 minutes. A solution containing 15 μM of Compound 66, 20 mM Tris-HCl, pH 7.4 and 0.9% NaCl was used as a reference (time=0 minutes). To each solution, an equal volume (100 μL) of ice-cold acetonitrile was added, and then the mixture was vortexed and transferred to glass vials. A standard concentration curve of the pro-drug and the drug was prepared in 10 mM Tris-HCl, pH 7.4, 0.45% NaCl and 50% acetonitrile. All samples were immediately analyzed by LC/MS.

Data set [2] concerns human prostatic adenocarcinoma cancer PC3 cells. The data set can be described thus: Growth of PC3 prostatic tumors in SCID mice. Format: in vivo. The settings on record: 5 consecutive intravenous injections; Compound 1 Mesylate Salt 4.84 μMoles/Kg; Compound 66 4.84 or 14.51 μMoles/Kg; FIG. 6. The procedure: The human prostatic adenocarcinoma cancer PC3 cells were purchased from the American Type Culture Collection (ATCC). These cells were confirmed to be free of mycoplasma infection. Cells were maintained in the Roswell Park Memorial Institute (RPMI), supplemented with 10% inactivated fetal bovine serum and 1% penicillin-streptomycin-L-Glutamine, under 5% carbon dioxide (CO2) at 37° C. For prostatic-tumor induction, cells were grown lower than 70% confluence in complete medium and then collected with trypsin (Bio Whittaker, Rockland, Me., USA). Cells were then centrifuged and washed 2 times in phosphate buffer solution (PBS) and resuspended in PBS at 1.5×10^6 cells/0.1 mL. PC3 cells were then transplanted subcutaneously into the flank of SCID mice (Charles River Laboratories, Wilmington, Mass., USA), as a suspension of tumor cells (1.5×10^6 cells in 100 μL PBS), under a laminar airflow hood. Eleven (11) days later, the size of each tumor was measured. […] Relative tumor size and volume was calculated as follows: length (cm)×[width (cm)]^2/2. […]

Data set [3] concerns calf intestinal alkaline phosphatase. The data set can be described thus: Conversion of phosphate pro-drug by calf intestinal alkaline phosphatase in vitro. The settings on record: 15 μM, 0.02 U/100 μL enzyme, pH 7.4; 30, 60, 120 minutes; FIG. 5. Format: in vitro ADME. The procedure: as §1
The nature of another data set: physchem. As to conditions: water.
The format of data set [4] is in vivo, CB17 SCID/SCID mice. The settings on record: 4.5 mg/kg IV once daily for five days, FIG. 2. The procedure:
Treatments started on day fourteen after C33A cells transplantation. […]. The negative control group was treated with vehicle alone. […].
Observation continued for 40 days after initial tumor implantation.

Data set [5] deals with C33A human cervical cancer cells. The settings on record: for reduction in tumor growth compared to vehicle only: 4.5 mg/kg IV once a day for five days, C33A tumors in SCID mice, FIG. 3; for T/C value: 4.5 mg/kg IV once daily for five days. The procedure: The resultant mice are a model for a human having cervical cancer.
The C33A human cervical cancer cells were maintained in RPMI (Hyclone, Utah, USA) supplemented with 10% inactivated fetal bovine serum (Bio-Whittaker, MD, USA) and 1% penicillin-streptomycin-L-Glutamine (Gibco, N.Y., USA), under 5% CO2 at 37° C., and passaged twice a week. The cells were grown at a confluency lower than 70% and than collected with Trypsin (Bio-Whittaker, MD, USA). The cells were then centrifuged and washed twice using phosphate buffered saline solution (PBS) and resuspended in PBS at 2×10^6 cells per 100 μl.
C33A cells were injected subcutaneously into the flank of female CB17 SCID/SCID mice. Each mouse was inoculated with a suspension of 2×10^6 tumors cells per 150 μl on day zero.
Treatments started on day fourteen after C33A cells transplantation. […] The negative control group was treated with vehicle alone. […] The positive control group was treated once every 3 days for five times with cisplatin (Sigma, St. Louis, Mo., USA) at a dose of 4 mg/kg. Cisplatin was formulated in PBS on each day of the injection and was administered IP in an injection volume of 80 μl.
The mice were weighed and the tumors measured on day 13 and every 2 days after treatment commenced. Observation continued for 40 days after initial tumor implantation. The changes in body weight and in the calculated tumor volume were plotted.

The nature of data set [6]: Shelf stability (precipitation) of formulation. The data set is classed as physicochemical. The settings on record: 0.6 mg/mL in 9.6% polyethylene glycol 300, 0.4% polysorbate 20 and 5% dextrose; listed as Compound 1 Tartrate Salt.
Procedure: (§5) To determine whether a compound is soluble in a solution, the solution was filtered on 0.2 μM polytetrafluoroethylene filters (Whatman Inc. Clifton, N.J., USA) and the compound concentration in the filtrate was measured by LC/MS and compared to the expected concentration.
Data set [7] concerns C33A cervical carcinoma cells. The data set can be described thus: cells. Format: cell-based. As to conditions: C-33A, Cervix; ATP levels 72 h post-treatment compared to untreated cells; read-out: IC50 of Compound 1 tartrate. The text has this:
(§2) […]. […] […]. The total dimethyl sulfoxide on the cells was 1%. […] […].
(§3) As depicted in Table 4, these compounds were efficient in decreasing cellular ATP levels in HI 299 and C33A cancer cell lines. Nevertheless, these compounds are believed to have utility in the in vivo methods of the invention, i.e., treatment and prevention of cancer and viral infections, respectively. It should be noted that, although this cell-based assay is believed to be indicative of anti-oncogenic activity in vivo, it is not the only useful assay for evaluating the anti-oncogenic activity of Triheterocyclic Compounds of the invention. In addition, the anti-viral and other biological activity of compounds of the invention can be determined and evaluated in other assay systems known to the skilled artisan.

The test system of data set [8] is H1299 human non-small cell lung cancer cells. The data set can be described thus: Cell viability by cellular ATP levels (ViaLight), H1299 cells. The data set is classed as cell-based. As to conditions: H1299, NSCLC; ATP levels 72 h post-treatment compared to untreated cells; read-out: IC50 of Compound 1 tartrate.
Source text: as §2, §3

Data set [9] deals with PC-3 human prostatic carcinoma cell line. The settings on record: read-out: IC50 of Compound 1 tartrate; PC-3, Prostate; ATP levels 72 h post-treatment compared to untreated cells. The procedure:
(§4) The cells lines were plated in 96-well microtiter plates (PerkinElmer Life Sciences Inc, Boston, Mass., USA) at a confluency that allowed them to reach confluence after 4 days of growth. […] The total dimethyl sulfoxide on the cells was 1%. After 3 days of incubation the ATP levels in the cells were quantified using a luminescent ViaLight detection system (Bio-Whittaker, MD, USA).

Data set [10] concerns SW-480 human adenocarcinoma cell line. The settings on record: read-out: IC50 of Compound 1 tartrate; SW-480, Colorectal; ATP levels 72 h post-treatment compared to untreated cells. The procedure:
as §4

Data set [11] has as its system OVCAR-3 human ovarian carcinoma cell line. The settings on record: read-out: IC50 of Compound 1 tartrate; OVCAR-3, Ovary; ATP levels 72 h post-treatment compared to untreated cells. The procedure: as §4
The subject of data set [12] is H460 non-small cell lung cancer cell line. The settings on record: read-out: IC50 of Compound 1 tartrate; H460, NSCLC; ATP levels 72 h post-treatment compared to untreated cells. The procedure: as §4
Data set [13] has as its system cancer cell lines H1299 and C33A, normal cell lines HMEC and MRC-5. As to conditions: 0.5 μM, 72 hours after treatment; H1299 and C33A vs HMEC and MRC-5; FIG. 1. The procedure: as §4
Data set [14] relates to HMEC normal mammary epithelial cells. The procedure:
as §4

Data set [15] deals with ADR-RES human breast cancer cell line. As to conditions: read-out: IC50 of Compound 1 tartrate; NCI/ADR-RES, Breast (Mutli-drug resistant); ATP levels 72 h post-treatment compared to untreated cells. The procedure:
as §4

For data set [16], the system named is A549 human lung carcinoma cell line. The settings on record: read-out: IC50 of Compound 1 tartrate; A549, NSCLC; ATP levels 72 h post-treatment compared to untreated cells. The procedure: as §4
The subject of data set [17] is B16-F1 mouse melanoma cell line. As to conditions: read-out: IC50 of Compound 1 tartrate; B16-F1, Murine Melanoma; ATP levels 72 h post-treatment compared to untreated cells. The procedure: as §4
Data set [18] concerns MCF-7 human breast cancer cell line. The settings on record: read-out: IC50 of Compound 1 tartrate; MCF-7, Breast; ATP levels 72 h post-treatment compared to untreated cells. The procedure:
as §4

T1 sequence (P05187 23-506): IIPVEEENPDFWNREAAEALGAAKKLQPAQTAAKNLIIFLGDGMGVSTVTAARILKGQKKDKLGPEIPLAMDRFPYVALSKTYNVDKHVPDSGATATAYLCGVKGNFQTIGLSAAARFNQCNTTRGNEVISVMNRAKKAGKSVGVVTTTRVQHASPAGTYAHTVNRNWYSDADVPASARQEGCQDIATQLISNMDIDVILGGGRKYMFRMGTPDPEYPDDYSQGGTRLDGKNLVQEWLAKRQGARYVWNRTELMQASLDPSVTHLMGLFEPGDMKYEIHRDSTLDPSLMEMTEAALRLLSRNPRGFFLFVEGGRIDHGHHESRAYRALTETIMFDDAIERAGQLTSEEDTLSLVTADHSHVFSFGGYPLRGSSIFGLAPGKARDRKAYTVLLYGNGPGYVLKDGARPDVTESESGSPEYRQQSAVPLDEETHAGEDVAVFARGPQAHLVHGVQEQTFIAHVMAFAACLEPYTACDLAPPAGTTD
Procedure for physchem: as §5

`COC1=CC(c2cc3ccccc3n2C(=O)CC(C)(C)c2c(C)cccc2OP(=O)(O)O)=N/C1=C/c1[nH]c(C)cc1C` [Compound 66]: the “conversion of pro-drug into Compound 1” value in [1] and in data set [3] was “convert a fraction of the pro-drug” throughout. The “growth of prostatic tumors in mice” value in [2] is recorded as “significantly reduce the growth of prostatic tumors”. The solubility – broadly, the dissolved amount per volume that the medium holds – in the data set “physchem” was determined as 10000 µg/mL (≈ 17 mM).

Consider `COC1=CC(c2cc3ccccc3[nH]2)=N/C1=C\c1[nH]c(C)cc1C` [Compound 1 tartrate], for which the body weight change result in [4] is “no significant changes in body weight”; in data set [4] (listed as Compound 1 Tartrate), “non-significant weight loss”. For the same compound, the “reduction in tumor growth compared to vehicle only” value in [5] is given as “statistically significant (p<0.0001) reduction in tumor growth”; in [5] (listed as Compound 1 Tartrate), “significantly reduces the human cervical tumors”. In addition, the figures for the T/C value in data set [5] (day 36) and in data set [5] (day 39) were 14% and 22%, respectively. For the same compound, the “average tumor size versus vehicle only” value in [5] (days 36 and 39, 4.5 mg/kg) was “significantly (p<0.001) smaller tumors”. In [6], the precipitation of formulation result is “tends to precipitate one hour after its preparation”. In addition, the pIC50 (as a rule, −log10 of the IC50, conventionally taken in molar units) in [7] is 6.70; in [8], 6.30; in data set [9], 6.70; in [10], 6.70; in data set [11] it was 6.70; in [12], 6.52. The pIC50 was 5.40 in [14] (read-out: IC50 of Compound 1 tartrate, HMEC, Normal Breast, ATP levels 72 h post-treatment compared to untreated cells); 6.40 in data set [15]; 6.40 in data set [16]; 7.22 in data set [17]; 6.22 in data set [18]. The “lowering of ATP levels in cancer cell lines compared with normal cell lines” value in data set [13] is reported as “significantly more effective at lowering ATP levels”. Further, the “efficacy in decreasing cellular ATP levels in cancer cell lines versus HMEC normal cell line” value in data set [14] (ten cancer cell lines vs HMEC, various concentrations) was “greater efficacy in decreasing cellular ATP levels”.
